Counter-ions that a name gives are not always drawn.

The results in this text go back to patent US20230183215A1, “Notch Inhibitors and Uses Thereof” (StemSynergy Therapeutics, Inc., priority 2020, published 2023).

For one assay, the target named is T1, Notch1 (Homo sapiens, UniProt P46531).
T1 construct: pLV[Tet]-Puro-TRE3G>Notch1-ICD; expressed in transfected cells; host or cells: 293A cells
The assay can be described thus: Notch1 Reporter Assay (CSL-responsive luciferase, doxycycline-induced Notch-ICD in 293A cells). The format is cell-based. The conditions noted are these: 25 ng/mL Dox, 24 h, luciferase normalized to cell viability. Here is the method:
293A cells expressing 1) pCMV-Tet-On 3G, 2) pLV[Tet]-Puro-TRE3G>Notch1-ICD, 3) pLV[Tet]-Puro-TRE3G>Notch2-ICD, 4) pLV[Tet]-Puro-TRE3G>Notch3-ICD, and 5) pCSL-RElement-Luc were used. When Doxycycline is added, the Tet-ON gene activates expression of hNotch1ICD, which together with endogenous NTC components binds to CSL responsive elements (pCSL-RElement-Luc) and expresses luciferase. 1×10^4 cells are plated in 100 μL (96-well format). 24 h later, compounds (10 mM stock in DMSO) are diluted in DMSO to 200×, then added (5 ul into 1 mL) to cell culture media containing 50 ng/mL Dox. This is then added 1:1 to cells. Final DMSO=0.25%, Dox=25 ng/mL. After 24 h, media is discarded, and cells are lysed in passive lysis buffer (Promega). Cells are rocked at room temperature for 15 min and then lysate is divided for luciferase assay (Luciferase Assay System, Promega) and cell viability (CellTiter Glo 2.0, Promega). Raw luciferase is normalized to cell viability, and then scaled to DMSO wells. Results are analyzed and IC50's are determined in GraphPad by nonlinear regression curve fitting (4 parameter) of dose response curves.

In assay [1] the test system is OE33 Esophageal Adenocarcinoma cell line. Description: OE33 Colony Formation Assay. In kind it is cell-based. Conditions: Homo sapiens, 200 cells/well, compound every 48 hours for 7 days, CellTiter-Glo. Here is the method:
OE33 Colony Formation Assay:
The OE33 Esophageal Adenocarcinoma cell line was cultured and plated into 96-well tissue culture plates under sparse conditions (200 cells/well). Test compounds were serially diluted in DMSO and then into culture media (final DMSO concentration=0.1%). Compound/media was then added to cells every 48 hours for a total of 7 days. Clonogenic growth was assessed using the CellTiter-Glo reagent, according to manufacturer (Promega) specifications. Percent inhibition was calculated as the percent of luminescence normalized to control (0.1% DMSO) wells. Nonlinear regression curve fitting was performed using GraphPad Prism software to determine EC50's.

T1 sequence (P46531 1754-2555 limits assumed): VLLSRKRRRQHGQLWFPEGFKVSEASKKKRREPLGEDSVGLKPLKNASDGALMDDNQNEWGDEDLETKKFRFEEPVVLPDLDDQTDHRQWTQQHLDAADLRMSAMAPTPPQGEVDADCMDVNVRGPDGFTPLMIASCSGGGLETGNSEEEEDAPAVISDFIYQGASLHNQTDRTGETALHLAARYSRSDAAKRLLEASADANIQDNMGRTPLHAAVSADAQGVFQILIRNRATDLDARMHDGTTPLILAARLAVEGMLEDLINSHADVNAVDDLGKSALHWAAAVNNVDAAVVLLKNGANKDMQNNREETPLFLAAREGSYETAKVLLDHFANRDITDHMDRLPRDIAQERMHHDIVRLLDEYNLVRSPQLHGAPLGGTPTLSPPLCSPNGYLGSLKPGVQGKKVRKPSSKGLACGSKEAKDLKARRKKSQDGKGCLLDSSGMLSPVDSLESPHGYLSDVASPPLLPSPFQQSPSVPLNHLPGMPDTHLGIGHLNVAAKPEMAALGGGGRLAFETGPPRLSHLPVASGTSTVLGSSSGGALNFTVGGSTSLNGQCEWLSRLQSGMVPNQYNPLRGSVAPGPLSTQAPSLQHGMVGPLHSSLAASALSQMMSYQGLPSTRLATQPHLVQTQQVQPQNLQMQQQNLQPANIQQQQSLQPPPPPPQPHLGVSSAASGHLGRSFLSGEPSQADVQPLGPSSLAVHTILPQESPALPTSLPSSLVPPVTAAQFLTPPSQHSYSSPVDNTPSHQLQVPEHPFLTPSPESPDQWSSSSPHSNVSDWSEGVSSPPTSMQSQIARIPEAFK

`COc1cc(-c2cc(C(F)(F)F)cc3c2n(C)c(=O)n3CC(=O)Nc2cccc(N3CCOCC3)c2)cc(F)c1OCc1nnc[nH]1` [SSTN-558, 2-(4-(4-((4H-1,2,4-triazol-3-yl)methoxy)-3-fluoro-5-methoxyphenyl)-3-methyl-2-oxo-6-(trifluoromethyl)-2,3-dihydro-1H-benzo[d]imidazol-1-yl)-N-(3-morpholinophenyl)acetamide] had a half-maximal inhibitory concentration (IC50) against Notch1 of 9.4 µM. This compound also displayed a 50% effective concentration (EC50) in assay [1] of 4.7 µM.

`COC(=O)c1cc(OCc2nnc[nH]2)c(OC)cc1-c1cc(C(F)(F)F)cc2c1n(C)c(=O)n2CC(=O)Nc1ccc(F)cc1` [SSTN-604, Methyl 5-((4H-1,2,4-triazol-3-yl)methoxy)-2-(1-(2-((4-fluorophenyl)amino)-2-oxoethyl)-3-methyl-2-oxo-6-(trifluoromethyl)-2,3-dihydro-1H-benzo[d]imidazol-4-yl)-4-methoxybenzoate hydrochloride salt]: half-maximal inhibition against Notch1 (IC50) was put at 10.4 µM. In assay [1], the half-maximal effective concentration (EC50) turned out to be 18.9 µM.

At Notch1, `COc1cc(-c2cc(C(F)(F)F)cc3c2n(C)c(=O)n3CC(=O)Nc2ccc(OC(F)F)cc2)cc(F)c1OCc1nnc[nH]1` [SSTN-497, 2-(4-(4-((4H-1,2,4-triazol-3-yl)methoxy)-3-fluoro-5-methoxyphenyl)-3-methyl-2-oxo-6-(trifluoromethyl)-2,3-dihydro-1H-benzo[d]imidazol-1-yl)-N-(4-(difluoromethoxy)phenyl)acetamide hydrochloride] came in with an IC50 of 6.9 µM. In assay [1], this compound had a concentration for a half-maximal effect (EC50) of 2.9 µM.

In the case of `COc1cc(-c2cc(C(F)(F)F)cc3c2n(C)c(=O)n3CC(=O)Nc2cccc(C3CC3)c2)cc(F)c1OCc1nnc[nH]1` [SSTN-547, 2-(4-(4-((4H-1,2,4-triazol-3-yl)methoxy)-3-fluoro-5-methoxyphenyl)-3-methyl-2-oxo-6-(trifluoromethyl)-2,3-dihydro-1H-benzo[d]imidazol-1-yl)-N-(3-cyclopropylphenyl)acetamide], half-maximal inhibition on Notch1 (IC50) required 5.9 µM. Besides, the EC50 in assay [1] worked out at 1.7 µM.

`COc1cc(-c2cc(C(F)(F)F)cc3c2n(C)c(=O)n3CC(=O)Nc2ccc(F)cc2)cc(F)c1OCc1nnc[nH]1` [compound 465, 2-(4-(4-((4H-1,2,4-triazol-3-yl)methoxy)-3-fluoro-5-methoxyphenyl)-3-methyl-2-oxo-6-(trifluoromethyl)-2,3-dihydro-1H-benzo[d]imidazol-1-yl)-N-(4-fluorophenyl)acetamide hydrochloride]: at Notch1, half-maximal inhibition (IC50) required 8.6 µM. The same compound returned an EC50 in assay [1] of 5.2 µM.

On Notch1, `COc1cc(-c2cc(C(F)(F)F)cc3c2n(C)c(=O)n3CC(=O)N(C)c2ccc(F)cc2)cc(F)c1OCc1nnc[nH]1` [compound 440, 2-(4-(4-((4H-1,2,4-triazol-3-yl)methoxy)-3-fluoro-5-methoxyphenyl)-3-methyl-2-oxo-6-(trifluoromethyl)-2,3-dihydro-1H-benzo[d]imidazol-1-yl)-N-(4-fluorophenyl)-N-methylacetamide hydrochloride] had an IC50 of 3.1 µM. Besides, the midpoint of the response in assay [1], the EC50, lay at 4.6 µM.

As for `COc1cc(-c2cc(C(F)(F)F)cc3c2n(C)c(=O)n3CC(=O)Nc2cncc(C)c2)cc(F)c1OCc1nnc[nH]1` [SSTN-502, 2-(4-(4-((4H-1,2,4-triazol-3-yl)methoxy)-3-fluoro-5-methoxyphenyl)-3-methyl-2-oxo-6-(trifluoromethyl)-2,3-dihydro-1H-benzo[d]imidazol-1-yl)-N-(5-methylpyridin-3-yl)acetamide hydrochloride], the IC50 at Notch1 was found to be 12 µM. The same compound came in with an EC50 in assay [1] of 8 µM.

On Notch1, `COc1cc(-c2cc(C(F)(F)F)cc3c2n(C)c(=O)n3CC(=O)N(C)c2ccc(F)cc2F)cc(F)c1OCc1nnc[nH]1` [compound 447, 2-(4-(4-((4H-1,2,4-triazol-3-yl)methoxy)-3-fluoro-5-methoxyphenyl)-3-methyl-2-oxo-6-(trifluoromethyl)-2,3-dihydro-1H-benzo[d]imidazol-1-yl)-N-(2,4-difluorophenyl)-N-methylacetamide hydrochloride] registered an IC50 of 3.3 µM. Moreover, a half-maximal response in assay [1] (EC50) required 2.8 µM.

The compound `COc1cc(-c2cc(C(F)(F)F)cc3c2n(C)c(=O)n3CC(=O)Nc2ccc(S(C)(=O)=O)cc2)cc(F)c1OCc1nnc[nH]1` [SSTN-503, 2-(4-(4-((4H-1,2,4-triazol-3-yl)methoxy)-3-fluoro-5-methoxyphenyl)-3-methyl-2-oxo-6-(trifluoromethyl)-2,3-dihydro-1H-benzo[d]imidazol-1-yl)-N-(4-(methylsulfonyl)phenyl)acetamide hydrochloride] had a 50% inhibitory concentration (IC50) against Notch1 of 12.5 µM. Moreover, the midpoint of the response in assay [1], the EC50, lay at 8.4 µM.

On to `COc1cc(-c2cc(C(F)(F)F)cc3c2n(C)c(=O)n3CC(=O)Nc2cccc(C(C)(C)C)c2)cc(F)c1OCc1nnc[nH]1` [SSTN-555, 2-(4-(4-((4H-1,2,4-triazol-3-yl)methoxy)-3-fluoro-5-methoxyphenyl)-3-methyl-2-oxo-6-(trifluoromethyl)-2,3-dihydro-1H-benzo[d]imidazol-1-yl)-N-(3-(tert-butyl)phenyl)acetamide], for which it took 4.1 µM to reach half-maximal inhibition against Notch1 (IC50). Besides, in assay [1], the 50% effective concentration (EC50) turned out to be 1.7 µM.

`COc1cc(-c2cc(C(F)(F)F)cc3c2n(C)c(=O)n3CC(=O)N(C)c2ccc(C(F)(F)F)cc2)cc(F)c1OCc1nnc[nH]1` [compound 439, 2-(4-(4-((4H-1,2,4-triazol-3-yl)methoxy)-3-fluoro-5-methoxyphenyl)-3-methyl-2-oxo-6-(trifluoromethyl)-2,3-dihydro-1H-benzo[d]imidazol-1-yl)-N-methyl-N-(4-(trifluoromethyl)phenyl)acetamide hydrochloride]: 3.5 µM corresponded to half-maximal inhibition on Notch1 (IC50). Moreover, in assay [1], the EC50 is 1.2 µM.

Consider `COc1cc(-c2cc(C(F)(F)F)cc3c2n(C)c(=O)n3CC(=O)Nc2cccc(Cl)c2)cc(F)c1OCc1nnc[nH]1` [SSTN-490, 2-(4-(4-((4H-1,2,4-triazol-3-yl)methoxy)-3-fluoro-5-methoxyphenyl)-3-methyl-2-oxo-6-(trifluoromethyl)-2,3-dihydro-1H-benzo[d]imidazol-1-yl)-N-(3-chlorophenyl)acetamide hydrochloride], for which the IC50 against Notch1 turned out to be 5.5 µM. Moreover, the EC50 in assay [1] turned out to be 1.7 µM.

`COc1cc(-c2cc(C(F)(F)F)cc3c2n(C)c(=O)n3CC(=O)Nc2ccc(F)cc2)ccc1OCc1nnc[nH]1` [SSTN-598, 2-(4-(4-((4H-1,2,4-triazol-3-yl)methoxy)-3-methoxyphenyl)-3-methyl-2-oxo-6-(trifluoromethyl)-2,3-dihydro-1H-benzo[d]imidazol-1-yl)-N-(4-fluorophenyl)acetamide hydrochloride salt] returned a 50% inhibitory concentration (IC50) against Notch1 of 6.4 µM. Also, the EC50 in assay [1] came out at 11.6 µM.

The compound `COc1cc(-c2cc(C(F)(F)F)cc3c2n(C)c(=O)n3CC(=O)Nc2ccc(Cl)cc2)cc(F)c1OCc1nnc[nH]1` [SSTN-489, 2-(4-(4-((4H-1,2,4-triazol-3-yl)methoxy)-3-fluoro-5-methoxyphenyl)-3-methyl-2-oxo-6-(trifluoromethyl)-2,3-dihydro-1H-benzo[d]imidazol-1-yl)-N-(4-chlorophenyl)acetamide hydrochloride] returned an IC50 against Notch1 of 7.9 µM. In assay [1], this compound showed an EC50 of 2.1 µM.

`COc1cc(-c2cc(C(F)(F)F)cc3c2n(C)c(=O)n3CC(=O)Nc2cccnc2F)cc(F)c1OCc1nnc[nH]1` [SSTN-612, 2-(4-(4-((4H-1,2,4-triazol-3-yl)methoxy)-3-fluoro-5-methoxyphenyl)-3-methyl-2-oxo-6-(trifluoromethyl)-2,3-dihydro-1H-benzo[d]imidazol-1-yl)-N-(2-fluoropyridin-3-yl)acetamide]: the IC50 on Notch1 amounted to 13.2 µM. For the same compound, in assay [1], the EC50 turned out to be 17.1 µM.

At Notch1, `COCc1cccc(NC(=O)Cn2c(=O)n(C)c3c(-c4cc(F)c(OCc5nnc[nH]5)c(OC)c4)cc(C(F)(F)F)cc32)c1` [SSTN-548, 2-(4-(4-((4H-1,2,4-triazol-3-yl)methoxy)-3-fluoro-5-methoxyphenyl)-3-methyl-2-oxo-6-(trifluoromethyl)-2,3-dihydro-1H-benzo[d]imidazol-1-yl)-N-(3-(methoxymethyl)phenyl)acetamide] displayed a 50% inhibitory concentration (IC50) of 8.7 µM. In assay [1], the EC50 amounted to 2.3 µM.

`COc1cc(-c2cc(C(F)(F)F)cc3c2n(C)c(=O)n3CC(=O)N(c2ccc(F)cc2)C2CC2)cc(F)c1OCc1nnc[nH]1` [SSTN-543, 2-(4-(4-((4H-1,2,4-triazol-3-yl)methoxy)-3-fluoro-5-methoxyphenyl)-3-methyl-2-oxo-6-(trifluoromethyl)-2,3-dihydro-1H-benzo[d]imidazol-1-yl)-N-cyclopropyl-N-(4-fluorophenyl)acetamide] came in with a half-inhibitory concentration (IC50) against Notch1 of 4.7 µM. In addition, a half-maximal response in assay [1] (EC50) required 2.9 µM.
